US9561231B2 (AbbVie Inc., priority 2012, dated 2017)
pEC50, pKi: −log10 of the molar value. Like-named read-outs stand apart in the source and are kept apart here.

Key:
[1] = system: breast cancer cell line MX-1; assay: MX-1 cell line proliferation assay (3-day); format: cell-based; settings: MX-1 cells, Cell Titer Glo, read-out: Cellular proliferation: EC50
Protocol: The impact of compounds of the Examples on cancer cell proliferation was determined using the breast cancer cell line MX-1 (ATCC) in a 3-day proliferation assay. MX-1 cells were maintained in RPMI supplemented with 10% FBS at 37° C. and an atmosphere of 5% CO2. For compound testing, MX-1 cells were plated in 96-well black bottom plates at a density of 5000 cells/well in 90 μL of culture media and incubated at 37° overnight to allow cell adhesion and spreading. Compound dilution series were prepared in DMSO via a 3-fold serial dilution from 3 mM to 0.1 μM. The DMSO dilution series were then diluted 1:100 in phosphate buffered saline, and 10 μL of the resulted solution were added to the appropriate wells of the MX-1 cell plate. The final compound concentrations in the wells were 3, 1, 0.3, 0.1, 0.03, 0.01, 0.003, 0.001, 0.0003 and 0.0001 μM.
Luminescence readings from the Cell Titer Glo assay were normalized to the DMSO treated cells and analyzed using the GraphPad Prism software with sigmoidal curve fitting to obtain EC50s.

[2] = biological target: T1, first (BD1: amino acids K57-E168) bromodomain of BRD4 (Homo sapiens, UniProt O60885); assay: TR-FRET bromodomain binding assay, BRD4 BD1; settings: Ki calculated from IC50, probe Kd and probe concentration, read-out: TR-FRET Binding Ki: BRD4 (BDI_K57-E168)
T1 construct: His-tagged first (BD1: amino acids K57-E168)
Outline: (§1)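 Compounds were serially diluted in DMSO, diluted into pH 6.0 phosphate buffer with NaCl, EDTA, Triton X-100 and DTT, then combined with His-tagged bromodomain and an Alexa647-labeled BET-inhibitor probe. TR-FRET was read, percent inhibition fitted to give IC50, and Ki derived using probe Kd.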

[3] = biological target: T2, second (BD2: amino acids E352-E168) bromodomain of BRD4 (Homo sapiens, UniProt O60885); assay: TR-FRET bromodomain binding assay, BRD4 BD2; settings: Ki calculated from IC50, probe Kd and probe concentration, read-out: TR-FRET Binding Ki: BRD4 (BDII_E352-M457)
T2 construct: protocol
Outline: as §1

[4] = Homo sapiens, MX1, 72 h incubation
[5] = TR-FRET assay protocol (A-G, compound concentration range)
[6] = TR-FRET assay protocol (D, E or G) per compound

Row | Molecule | pEC50 [1, 4] | pKi [2, 5] | pKi [3, 5] | pKi [2, 6] | pKi [3, 6] | pEC50 ([1]; 72 h incubation) | pEC50 ([1]; 72 hours with compound)
1 | 1-(2-chloro-5-fluorophenyl)-N-[4-(2,4-difluorophenoxy)-3-(4-ethoxy-1-methyl-6-oxo-1,6-dihydropyridin-3-yl)phenyl]methanesulfonamide [Example 350] | – | – | – | – | – | 6.00 | –
2 | Cn1nc(-c2ccccc2OCc2ccccc2)ccc1=O [Example 2, 6-[2-(benzyloxy)phenyl]-2-methylpyridazin-3(2H)-one] | 4.87 | 4.93 | 5.54 | – | – | – | –
3 | Cn1cc(-c2cc(NS(C)(=O)=O)ccc2Oc2ccc(F)cc2F)c(C(F)(F)F)cc1=O [Example 5, N-{4-(2,4-difluorophenoxy)-3-[1-methyl-6-oxo-4-(trifluoromethyl)-1,6-dihydropyridin-3-yl]phenyl}methanesulfonamide] | < 5.52 | 6.04 | 6.16 | – | – | – | –
4 | Cn1nc(-c2cc(N)ccc2Oc2ccccc2)ccc1=O [Example 10, 6-(5-amino-2-phenoxyphenyl)-2-methylpyridazin-3(2H)-one] | 5.43 | 5.61 | 5.82 | – | – | – | –
5 | Cn1nc(-c2cc(C(N)=O)ccc2Oc2ccccc2)ccc1=O [Example 14, 3-(1-methyl-6-oxo-1,6-dihydropyridazin-3-yl)-4-phenoxybenzamide] | 4.94 | 5.59 | 5.91 | – | – | – | –
6 | CC(=O)NCc1ccc(Oc2ccccc2)c(-c2ccc(=O)n(C)n2)c1 [Example 16, N-[3-(1-methyl-6-oxo-1,6-dihydropyridazin-3-yl)-4-phenoxybenzyl]acetamide] | 5.23 | 5.95 | 5.07 | – | – | – | –
7 | Cn1nc(-c2cc(CNC(=O)C(F)(F)F)ccc2Oc2ccccc2)ccc1=O [Example 17, 2,2,2-trifluoro-N-[3-(1-methyl-6-oxo-1,6-dihydropyridazin-3-yl)-4-phenoxybenzyl]acetamide] | 5.58 | 6.29 | 5.34 | – | – | – | –
8 | CCS(=O)(=O)c1ccc(Oc2ccc(F)cc2F)c(-c2cc(=O)n(C)cc2OCC(F)(F)F)c1 [Example 398, 4-[2-(2,4-difluorophenoxy)-5-(ethylsulfonyl)phenyl]-1-methyl-5-(2,2,2-trifluoroethoxy)pyridin-2(1H)-one] | – | – | – | – | – | – | 6.35
9 | CCOc1cc(=O)n(C)cc1-c1cc(NC(=O)c2ccc(C(C)C)cc2)ccc1Oc1ccc(F)cc1F [Example 413, N-[4-(2,4-difluorophenoxy)-3-(4-ethoxy-1-methyl-6-oxo-1,6-dihydropyridin-3-yl)phenyl]-4-(propan-2-yl)benzamide] | – | – | – | 6.74 | 6.83 | – | –
10 | CCOc1cc(=O)n(C)cc1-c1cc(NC(=O)c2cnc(C)cn2)ccc1Oc1ccc(F)cc1F [Example 414, N-[4-(2,4-difluorophenoxy)-3-(4-ethoxy-1-methyl-6-oxo-1,6-dihydropyridin-3-yl)phenyl]-5-methylpyrazine-2-carboxamide] | – | – | – | 7.21 | 7.41 | – | –
11 | CCOc1cc(=O)n(C)cc1-c1cc(NS(=O)(=O)c2ccc(C(C)(C)C)cc2)ccc1Oc1ccc(F)cc1F [Example 416, 4-tert-butyl-N-[4-(2,4-difluorophenoxy)-3-(4-ethoxy-1-methyl-6-oxo-1,6-dihydropyridin-3-yl)phenyl]benzenesulfonamide] | – | – | – | 6.31 | 6.55 | – | –
12 | CCOc1cc(=O)n(C)cc1-c1cc(NS(=O)(=O)c2ccc(Cl)cc2Cl)ccc1Oc1ccc(F)cc1F [Example 417, 2,4-dichloro-N-[4-(2,4-difluorophenoxy)-3-(4-ethoxy-1-methyl-6-oxo-1,6-dihydropyridin-3-yl)phenyl]benzenesulfonamide] | – | – | – | 6.59 | 7.24 | – | –
13 | CCOc1cc(=O)n(C)cc1-c1cc(NS(=O)(=O)c2ccc3ccccc3c2)ccc1Oc1ccc(F)cc1F [Example 418, N-[4-(2,4-difluorophenoxy)-3-(4-ethoxy-1-methyl-6-oxo-1,6-dihydropyridin-3-yl)phenyl]naphthalene-2-sulfonamide] | – | – | – | 6.44 | 6.78 | – | –
14 | N-[4-(2,4-difluorophenoxy)-3-(4-ethoxy-1-methyl-6-oxo-1,6-dihydropyridin-3-yl)phenyl]-1-phenylmethanesulfonamide [Example 311] | – | – | – | – | – | 6.00 | –
15 | N-{4-(4-cyanophenoxy)-3-[1-methyl-6-oxo-4-(2,2,2-trifluoroethoxy)-1,6-dihydropyridin-3-yl]phenyl}ethanesulfonamide [Example 374] | – | – | – | – | – | – | 7.12

More lines, main results first:

Row | pEC50 [1, 4] | pKi [2, 5] | pKi [3, 5] | pKi [2, 6] | pKi [3, 6] | Molecule | pEC50 ([1]; 72 h incubation) | pEC50 ([1]; 72 hours with compound)
16 | 4.70 | 5.73 | 5.69 | – | – | Cn1nc(-c2ccccc2Oc2ccccc2)ccc1=O [Example 1, 2-methyl-6-(2-phenoxyphenyl)pyridazin-3(2H)-one] | – | –
17 | 5.02 | 5.39 | 5.36 | – | – | Cc1ccc(S(=O)(=O)Nc2ccc(Oc3ccccc3)c(-c3ccc(=O)n(C)n3)c2)cc1 [Example 11, 4-methyl-N-[3-(1-methyl-6-oxo-1,6-dihydropyridazin-3-yl)-4-phenoxyphenyl]benzenesulfonamide] | – | –
18 | 5.58 | 6.24 | 6.16 | – | – | CC(=O)Nc1ccc(Oc2ccccc2)c(-c2ccc(=O)n(C)n2)c1 [Example 12, N-[3-(1-methyl-6-oxo-1,6-dihydropyridazin-3-yl)-4-phenoxyphenyl]acetamide] | – | –
19 | 5.15 | 5.57 | 6.28 | – | – | COc1cc(=O)n(C)nc1-c1cc(N)ccc1Oc1ccccc1 [Example 20, 6-(5-amino-2-phenoxyphenyl)-5-methoxy-2-methylpyridazin-3(2H)-one] | – | –
20 | 5.87 | 6.83 | 6.99 | – | – | COc1cc(=O)n(C)nc1-c1cc(NC(C)=O)ccc1Oc1ccccc1 [Example 21, N-[3-(4-methoxy-1-methyl-6-oxo-1,6-dihydropyridazin-3-yl)-4-phenoxyphenyl]acetamide] | – | –
21 | 5.42 | 6.32 | 6.67 | – | – | COc1cc(=O)n(C)nc1-c1cc(N(C)S(C)(=O)=O)ccc1Oc1ccccc1 [Example 23, N-[3-(4-methoxy-1-methyl-6-oxo-1,6-dihydropyridazin-3-yl)-4-phenoxyphenyl]-N-methylmethanesulfonamide] | – | –
22 | 6.00 | 6.49 | 6.97 | – | – | CCCS(=O)(=O)Nc1ccc(Oc2ccccc2)c(-c2nn(C)c(=O)cc2OC)c1 [Example 24, N-[3-(4-methoxy-1-methyl-6-oxo-1,6-dihydropyridazin-3-yl)-4-phenoxyphenyl]propane-1-sulfonamide] | – | –
23 | 6.35 | 7.01 | 7.90 | – | – | COc1cc(=O)n(C)nc1-c1cc(NS(=O)(=O)CC(F)(F)F)ccc1Oc1ccccc1 [Example 25, 2,2,2-trifluoro-N-[3-(4-methoxy-1-methyl-6-oxo-1,6-dihydropyridazin-3-yl)-4-phenoxyphenyl]ethanesulfonamide] | – | –
24 | 6.10 | 6.24 | 6.98 | – | – | COc1cc(=O)n(C)nc1-c1cc(NS(=O)(=O)C2CCCC2)ccc1Oc1ccccc1 [Example 26, N-[3-(4-methoxy-1-methyl-6-oxo-1,6-dihydropyridazin-3-yl)-4-phenoxyphenyl]cyclopentanesulfonamide] | – | –
25 | 6.14 | 6.53 | 7.10 | – | – | COc1cc(=O)n(C)nc1-c1cc(NS(=O)(=O)Cc2ccccc2)ccc1Oc1ccccc1 [Example 27, N-[3-(4-methoxy-1-methyl-6-oxo-1,6-dihydropyridazin-3-yl)-4-phenoxyphenyl]-1-phenylmethanesulfonamide] | – | –
26 | 5.12 | 6.15 | 6.64 | – | – | COc1cc(=O)n(C)nc1-c1cc(NS(=O)(=O)CCC(F)(F)F)ccc1Oc1ccccc1 [Example 28, 3,3,3-trifluoro-N-[3-(4-methoxy-1-methyl-6-oxo-1,6-dihydropyridazin-3-yl)-4-phenoxyphenyl]propane-1-sulfonamide] | – | –
27 | 5.34 | 5.86 | 6.02 | – | – | CCOC(=O)Nc1ccc(Oc2ccccc2)c(-c2nn(C)c(=O)cc2OC)c1 [Example 29, ethyl[3-(4-methoxy-1-methyl-6-oxo-1,6-dihydropyridazin-3-yl)-4-phenoxyphenyl]carbamate] | – | –
28 | 6.38 | – | 7.33 | – | – | COc1cc(=O)n(C)nc1-c1cc(NS(=O)(=O)N(C)C)ccc1Oc1ccccc1 [Example 31, N′-[3-(4-methoxy-1-methyl-6-oxo-1,6-dihydropyridazin-3-yl)-4-phenoxyphenyl]-N,N-dimethylsulfuric diamide] | – | –
